Experimental data: ChEMBL document CHEMBL4385604, “Identification of Pyrrolo[2,3- d]pyrimidine-Based Derivatives as Potent and Orally Effective Fms-like Tyrosine Receptor Kinase 3 (FLT3) Inhibitors for Treating Acute Myelogenous Leukemia” (J Med Chem, 2019)
Calls of active or inactive are those of the source. No cut-off for these calls is given here.

Columns and labels:
[1] = biological target: T1, Receptor-type tyrosine-protein kinase FLT3 (Homo sapiens, UniProt P36888)
T1 sequence (P36888 whole entry): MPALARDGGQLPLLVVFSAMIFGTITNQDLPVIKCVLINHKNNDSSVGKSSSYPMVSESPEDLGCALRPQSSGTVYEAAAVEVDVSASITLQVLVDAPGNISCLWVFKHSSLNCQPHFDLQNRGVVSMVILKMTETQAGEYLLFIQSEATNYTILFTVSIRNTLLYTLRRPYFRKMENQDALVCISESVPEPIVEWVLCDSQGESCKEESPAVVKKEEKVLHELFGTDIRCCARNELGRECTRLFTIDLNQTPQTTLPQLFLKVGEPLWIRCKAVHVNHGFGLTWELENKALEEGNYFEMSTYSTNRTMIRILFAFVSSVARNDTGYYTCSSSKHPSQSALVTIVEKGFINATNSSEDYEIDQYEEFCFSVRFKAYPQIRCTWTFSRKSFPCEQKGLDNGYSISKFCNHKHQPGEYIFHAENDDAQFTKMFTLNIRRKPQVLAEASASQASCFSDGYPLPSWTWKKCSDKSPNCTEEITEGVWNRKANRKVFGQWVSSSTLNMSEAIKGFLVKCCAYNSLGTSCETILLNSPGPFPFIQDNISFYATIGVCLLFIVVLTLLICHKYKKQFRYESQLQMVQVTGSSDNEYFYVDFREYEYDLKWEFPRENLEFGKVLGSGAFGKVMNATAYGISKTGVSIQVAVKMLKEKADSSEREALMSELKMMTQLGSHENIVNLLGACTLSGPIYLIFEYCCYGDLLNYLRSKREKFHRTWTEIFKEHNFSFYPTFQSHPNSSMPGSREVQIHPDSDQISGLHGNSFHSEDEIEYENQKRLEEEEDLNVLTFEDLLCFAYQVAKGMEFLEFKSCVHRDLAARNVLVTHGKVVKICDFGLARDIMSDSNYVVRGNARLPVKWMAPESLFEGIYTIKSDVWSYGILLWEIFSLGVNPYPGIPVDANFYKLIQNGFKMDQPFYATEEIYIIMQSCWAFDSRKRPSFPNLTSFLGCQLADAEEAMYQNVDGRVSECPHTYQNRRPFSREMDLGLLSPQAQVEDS

RS4-11 = assay: Antiproliferative activity against human RS4:11 cells harboring wild-type FLT3 measured after 72 hrs by MTT assay; type: functional, cell-based; details: RS4-11, 72 h
HL-60 = assay: Antiproliferative activity against human HL60 cells harboring wild-type FLT3 measured after 72 hrs by MTT assay; type: functional, cell-based; details: HL-60, 72 h
MV4-11 [2] = assay: cells; details: Homo sapiens, MV4-11, 72 h
Description: Antiproliferative activity against human MV4-11 cells harboring FLT3-ITD mutant measured after 72 hrs by MTT assay

MOLM-13 [3] = assay: cells; details: Homo sapiens, MOLM-13, 72 h
Description: Antiproliferative activity against human MOLM13 cells harboring FLT3-ITD mutant measured after 72 hrs by MTT assay

BaF3 [4] = assay: cells; details: Mus musculus, BaF3, 72 h
Description: Antiproliferative activity against mouse BAF3 cells harboring FLT3-ITD mutant measured after 72 hrs by MTT assay

BaF3 [5] = assay: cells; details: Mus musculus, BaF3, 72 h; remark: listed apart in the source
Description: Antiproliferative activity against mouse BAF3 cells harboring FLT3-ITD-F691L mutant measured after 72 hrs by MTT assay

BaF3 [6] = assay: cells; details: Mus musculus, BaF3, 72 h; remark: listed apart in the source
Description: Antiproliferative activity against mouse BAF3 cells harboring FLT3-ITD-D835V mutant measured after 72 hrs by MTT assay

MV4-11 [7] = assay: Antitumour activity against human MV4-11 cells xenografted in NOD/SCID mouse assessed as tumour growth inhibition; type: functional, cell-based
MOLM-13 [8] = assay: Antitumour activity against human MOLM13 cells xenografted in NOD/SCID mouse assessed as tumour growth inhibition; type: functional, cell-based
[9] = Tmax in Sprague-Dawley rat at 5 mg/kg, po by LC-MS/MS analysis; type: ADME, organism-based; details: in vivo
[10] = Elimination half-life in Sprague-Dawley rat at 5 mg/kg, po by LC-MS/MS analysis; type: ADME, organism-based; details: in vivo, read-out: beta t1/2 (converted)
[11] = Plasma clearance in Sprague-Dawley rat at 5 mg/kg, po by LC-MS/MS analysis; type: ADME, organism-based
[12] = Oral bioavailability in Sprague-Dawley rat at 5 mg/kg by LC-MS/MS analysis; type: ADME, organism-based; details: in vivo

Row | Compound | IC50 [1] [nM] | IC50 (RS4-11) [nM] | IC50 (HL-60) [nM] | IC50 (MV4-11 [2]) [nM] | IC50 (MOLM-13 [3]) [nM] | IC50 (BaF3 [4]) [nM] | IC50 (BaF3 [5]) [nM] | IC50 (BaF3 [6]) [nM] | TGI (MV4-11 [7]) | TGI (MOLM-13 [8]) | Tmax [9] [h] | half-life [10] [h] | CL/F [11] [mL/min/kg] | bioavailability [12] [%]
1 | C=CCn1cc(-c2ccc(NC(=O)Nc3cc(C(C)(C)C)on3)c(F)c2)c2c(N)ncnc21 | 17 | > 1000 | > 1000 | 2.34 | 0.65 | 3.04 | 82.4 | 51.9 |  |  |  |  |  | 
2 | CCOCCn1cc(-c2ccc(NC(=O)Nc3cc(C(C)(C)C)on3)cc2)c2c(N)ncnc21 | 37 | > 1000 | > 1000 | 1.47 | 0.117 | 3.21 | 98.6 | 173 |  |  |  |  |  | 
3 | CC(C)(C)c1cc(NC(=O)Nc2ccc(-c3cn(CCCN4CCOCC4)c4ncnc(N)c34)cc2)no1 | 9 | > 1000 | > 1000 | 0.069 | 0.193 | 0.99 | 32.1 | 61.8 | inactive | inactive |  |  |  | 
4 | CCCCn1cc(-c2ccc(NC(=O)Nc3cc(C(C)(C)C)on3)cc2)c2c(N)ncnc21 | 34 | > 1000 | > 1000 | 2.18 | 1.43 | 5.69 | 209 | 112 |  |  |  |  |  | 
5 | CC(C)(C)c1cc(NC(=O)Nc2ccc(-c3cn(CCN4CCN(S(C)(=O)=O)CC4)c4ncnc(N)c34)cc2)no1 | 26 | > 1000 | > 1000 | 14.2 | 10.6 | 3.59 | 86 | 166 |  |  |  |  |  | 
6 | C=CCCCCn1cc(-c2ccc(NC(=O)Nc3cc(C(C)(C)C)on3)cc2)c2c(N)ncnc21 | 70 | > 1000 | > 1000 | 1.79 | 2.85 | 6.06 | 228 | 185 |  |  |  |  |  | 
7 | CC(C)(C)c1cc(NC(=O)Nc2ccc(-c3c[nH]c4ncnc(N)c34)cc2F)no1 | 4 | > 1000 | > 1000 | 0.131 | 0.007 | 0.25 | 10.7 | 18 |  |  | 0.88 | 2.54 | 56.3 | 25.6
8 | CCN(CC)C(=O)n1cc(-c2ccc(NC(=O)Nc3cc(C(C)(C)C)on3)cc2)c2c(N)ncnc21 | 31 | > 1000 | > 1000 | 1.73 | 1.95 | 3.1 | 28.2 | 28.5 |  |  |  |  |  | 
9 | CC(C)=CCn1cc(-c2ccc(NC(=O)Nc3cc(C(C)(C)C)on3)cc2)c2c(N)ncnc21 | 113 | > 1000 | > 1000 | 10.3 | 2.77 | 8.67 | 216 | 305 |  |  |  |  |  | 
10 | CC(C)(C)c1cc(NC(=O)Nc2ccc(-c3cn(CCC#N)c4ncnc(N)c34)cc2F)no1 | 22 | > 1000 | > 1000 | 2.21 | 2.33 | 4.26 | 31.5 | 112 |  |  |  |  |  | 
11 | CC(C)(C)c1cc(NC(=O)Nc2ccc(-c3cn(C4CCCC4)c4ncnc(N)c34)cc2)no1 | 32 | > 1000 | > 1000 | 2.16 | 1.51 | 7.25 | 90.9 | 36.8 |  |  |  |  |  | 
12 | C=CCCCn1cc(-c2ccc(NC(=O)Nc3cc(C(C)(C)C)on3)cc2)c2c(N)ncnc21 | 69 | > 1000 | > 1000 | 2.94 | 2.22 | 5.95 | 200 | 140 |  |  |  |  |  | 
